One data set has as its system SH-SY5Y cells. The experiment in a line: Neuroprotection against Aβ peptide (25–35)-induced cell deaths (MTT). The note with it: pre-treatment 1, 2 and 10 μM for 24 h, then 40 μg/mL Aβ (25–35) 24 h; vs control p < 0.05. It counts as cell-based, human. The procedure:
The human SH-SY5Y neuroblastoma cell lines (CRL-2266, Lot No. 58979771) were purchased from American Type Culture Collection (Manassas, VA, USA) and used as models to investigate PIC and its analogs for neuroprotective activities against Aβ-induced cell deaths and the stimulation of neurite outgrowths. The SH-SY5Y cells were grown in DMEM/F-12 medium supplemented with 10% FBS at 37 °C under a humidified atmosphere and 5% CO2 [41]. […]. The SH-SY5Y cells (10,000 cells/well) were seeded and cultured in a DMEM/F-12 medium containing 10% FBS for 24 h at 37 °C under a humidified atmosphere and 5% CO2. […] The medium was then removed, and 40 μg/mL Aβ peptide (25–35) (dissolved in PBS) or an equal aliquot of PBS was added to the medium for another 24 h culture. The MTT was used to evaluate cell viability, and the absorbance at 570 nm was determined. The DMSO used instead of the sample solution was blank (recognized as 100%), and each treatment was expressed as relative cell viability (%). To study the stimulation of neurite outgrowth, the SH-SY5Y cells (5000 cells/well) were seeded on a 96-well plate pre-coated with poly-L-lysine and then cultured in the DMEM/F-12 medium containing 10% FBS overnight at 37 °C under a humidified atmosphere and 5% CO2. After being removed from the culture medium, each PIC, GNT, RHA, and isoRHA (at a final concentration of 10 μM in the 0.1%DMSO) or 0.1% DMSO (the control) was added to the DMEM/F-12 medium containing 10% FBS and refreshed every three days. On day 3 and day 6, each of the culture plates was photographed using an inverted microscope (ECLIPSE TS100, Nikon Instruments Inc., Tokyo, Japan). The culture medium was removed and washed with PBS, and the cultured cells in each well were fixed with 4% paraformaldehyde. To measure cell viability and quantify the neurite outgrowths of the treated SH-SY5Y in a 96-well plate, the neurite outgrowth staining kit (a two-color fluorescence assay kit) was used, following a previous report or the protocol in the manufacturer’s manual (publication number: MAN0007224), which included a cell membrane-stained fluorescent dye (orange-red fluorescence), a cell viability indicator (green fluorescence), and a reagent for background masking. The fluorescence ratios of Ex555nm/Em565nm and Ex495nm/Em515nm were determined for the neurite outgrowths and the cell viabilities, respectively. The value for the control was recognized as 100%, and each treatment was expressed relative to the control.

Data set [1] concerns scopolamine-induced amnesiac ICR mice. The experiment in a line: Passive avoidance test in scopolamine-induced amnesiac ICR mice. The class given is in vivo, mouse. Particulars: PIC 50 mg/kg oral once a day, donepezil 5 mg/kg oral, scopolamine 1 mg/kg i.p. The text has this:
The scopolamine-induced cognitive dysfunctions of amnesiac ICR mice were used to evaluate the effects of PIC pre-treatments on the improvement of learning and memory functions, following previous reports. The animal experimental protocols were reviewed and approved by the Institutional Animal Care and Use Committee, Taipei Medical University (No. LAC-2021-0488). After a two-week acclimation, the mice were randomly divided into four groups (N = 5 for each group). In the first stage, the mice in the PIC group were orally pre-treated with PIC (50 mg/kg) using a feeding tube, once a day from day 1 to day 7; the mice in the blank, control, and donepezil groups were treated with the same volume of distilled water from day 1 to day 7. In the second stage, on day 8 and day 9, the mice in the PIC group and the donepezil group were orally treated once with PIC (50 mg/kg) and donepezil (positive control, 5 mg/kg), respectively, using a feeding tube; the mice in the blank and the control groups were treated with the same volume of distilled water. After 30 min, each mouse was injected intraperitoneally with scopolamine (1 mg/kg, dissolved in PBS), and the mice in the blank group were each injected with an equal volume of PBS instead of the scopolamine solution. Again, 30 min after the scopolamine or PBS injection, a learning and memory evaluation was performed on each mouse with the use of a 2-day passive avoidance test. All the mice were sacrificed at the end of the animal experiments, and the brain tissues of the mice in each group were isolated, weighted, and stored at −80 °C for further use.
A 2-day passive avoidance test, which included an acquisition trial on the first day and a retention trial on the second day, was used to evaluate the learning and memory functions of the scopolamine-induced cognitive dysfunctions of amnesiac ICR mice after PIC and donepezil treatments, following previous reports. A shuttle chamber (AccuScan Instruments Inc., Columbus, OH, USA) with a light box and a dark box separated by a sliding door was used. On day 8, after acclimation around the shuttle chamber for 30 min, each scopolamine-injected or PBS-injected mouse was placed in the light box for the acquisition trial. Once the mouse entered the dark box, the step-through latency (s) was recorded, and the sliding door was closed at the same time. Immediately after, the mouse was administered an electric foot shock (0.3 mA for 3 s) via the wired metal floor and then sent back to the cage. […] The step-through latency (period of time that each mouse stayed in the light box) was recorded again. […] The protein content of the whole brain extracts from the mice was quantified using the BCA protein kit, with bovine serum albumin as the standard protein. […]

A short description of data set [2]: Neurite outgrowth and cell viability, two-color fluorescence assay kit. It counts as cell-based. Particulars: human, 3-day or 6-day treatment, green fluorescence, read-out: cell viability relative to the control. The procedure:
The SH-SY5Y cells were grown in DMEM/F-12 medium supplemented with 10% FBS at 37 °C under a humidified atmosphere and 5% CO2 [41]. […] The MTT was used to evaluate cell viability, and the absorbance at 570 nm was determined. The DMSO used instead of the sample solution was blank (recognized as 100%), and each treatment was expressed as relative cell viability (%). To study the stimulation of neurite outgrowth, the SH-SY5Y cells (5000 cells/well) were seeded on a 96-well plate pre-coated with poly-L-lysine and then cultured in the DMEM/F-12 medium containing 10% FBS overnight at 37 °C under a humidified atmosphere and 5% CO2. After being removed from the culture medium, each PIC, GNT, RHA, and isoRHA (at a final concentration of 10 μM in the 0.1%DMSO) or 0.1% DMSO (the control) was added to the DMEM/F-12 medium containing 10% FBS and refreshed every three days. On day 3 and day 6, each of the culture plates was photographed using an inverted microscope (ECLIPSE TS100, Nikon Instruments Inc., Tokyo, Japan). The culture medium was removed and washed with PBS, and the cultured cells in each well were fixed with 4% paraformaldehyde. To measure cell viability and quantify the neurite outgrowths of the treated SH-SY5Y in a 96-well plate, the neurite outgrowth staining kit (a two-color fluorescence assay kit) was used, following a previous report or the protocol in the manufacturer’s manual (publication number: MAN0007224), which included a cell membrane-stained fluorescent dye (orange-red fluorescence), a cell viability indicator (green fluorescence), and a reagent for background masking. […] The value for the control was recognized as 100%, and each treatment was expressed relative to the control.

The values below come from PMC10376691, “Inhibition of Acetylcholinesterase and Amyloid-β Aggregation by Piceatannol and Analogs: Assessing In Vitro and In Vivo Impact on a Murine Model of Scopolamine-Induced Memory Impairment” (Antioxidants, 2023).

Entries after “also recorded” stand apart in the source; their conditions may differ.

A word on the viability: it is a read-out of living cells in per cent, often relative to untreated cells.

Consider `Oc1cc(O)cc(C=Cc2ccc(O)c(O)c2)c1` [PIC, 3,5,3′,4′-tetrahydroxystilbene], for which the “neuroprotection: cell viability against Aβ peptide (25–35)-induced cell deaths” value in the data set on SH-SY5Y cells was “elevated cell viabilities”. Besides, in data set [1], the “step-through latency, acquisition trial (first day)” value was “no significant difference among the groups”. In data set [1] (vs control p < 0.05), the “step-through latency, retention trial (second day)” value was “improved learning behavior; also recorded: longer staying time”. The viability at 10 µM in data set [2] came to 80%.
